# Measured values: patent US20200172491A1, “SUBSTITUTED 5-(HET-)ARYLPYRAZOLAMIDES AND SALTS THEREOF AND THEIR USE AS HERBICIDAL ACTIVE SUBSTANCES” (Bayer CropScience Aktiengesellschaft, priority 2017, published 2020)
# Tests used:
# Type in all cases: in vivo
# Viola tricolor [1] = assay: Post-emergence herbicidal action; conditions: 320 g/ha, rated after about 3 weeks, 100% = plants have died, 0% = like control plants
# Method: (§1) Seeds of monocotyledonous and dicotyledonous weeds and crop plants were placed in sandy loam in plastic or wood-fiber pots, covered with soil and cultivated in a greenhouse under controlled growth conditions. 2 to 3 weeks after sowing, the test plants were treated at the one-leaf stage. The compounds of the invention, formulated in the form of wettable powders (WP) or as emulsion concentrates (EC), were then sprayed onto the green parts of the plants as aqueous suspension or emulsion with addition of 0.5% additive at a water application rate of 600 l/ha (converted). After the test plants had been kept in the greenhouse under optimum growth conditions for about 3 weeks, the activity of the preparations was rated visually in comparison to untreated controls. For example, 100% activity=the plants have died, 0% activity=like control plants. Tables B1 to B6 below show the effects of selected compounds of the general formula (I) according to Table A1 at an application rate of 320 g/ha on various harmful plants, which were obtained by the aforementioned experimental procedure.
# Amaranthus retroflexus [2] = assay: Post-emergence herbicidal action; conditions: 320 g/ha, rated after about 3 weeks, 100% = plants have died, 0% = like control plants
# Method: as §1
# Stellaria media [3] = assay: Pre-emergence herbicidal action; conditions: 320 g/ha, scored after about 3 weeks, 100% = plants have died, 0% = like control plants
# From the text: (§2) Seeds of monocotyledonous and dicotyledonous weed plants and crop plants were placed in plastic or wood-fiber pots and covered with soil. The compounds of the invention, formulated in the form of wettable powders (WP) or as emulsion concentrates (EC), were then applied to the surface of the covering soil as aqueous suspension or emulsion with addition of 0.5% additive at a water application rate equivalent to 600 l/ha. After the treatment, the pots were placed in a greenhouse and kept under good growth conditions for the test plants. After about 3 weeks, the effect of the preparations is scored visually in comparison with untreated controls as percentages. For example, 100% activity=the plants have died, 0% activity=like control plants. Tables B7 to B11 below show the effects of selected compounds of the general formula (I) according to Table A1 at an application rate of 320 g/ha on various harmful plants, which were obtained by the aforementioned experimental procedure.
# Viola tricolor [4] = assay: Pre-emergence herbicidal action; conditions: 320 g/ha, scored after about 3 weeks, 100% = plants have died, 0% = like control plants
# From the text: as §2
# Matricaria inodora [5] = assay: Pre-emergence herbicidal action; conditions: 320 g/ha, scored after about 3 weeks, 100% = plants have died, 0% = like control plants
# From the text: as §2
# Amaranthus retroflexus [6] = assay: Pre-emergence herbicidal action; conditions: 320 g/ha, scored after about 3 weeks, 100% = plants have died, 0% = like control plants
# From the text: as §2
# Ipomoea purpurea = assay: Post-emergence herbicidal action; conditions: 320 g/ha, rated after about 3 weeks, 100% = plants have died, 0% = like control plants
# Method: as §1
# Stellaria media [7] = assay: Post-emergence herbicidal action; conditions: 320 g/ha, rated after about 3 weeks, 100% = plants have died, 0% = like control plants
# Method: as §1
# Matricaria inodora [8] = assay: Post-emergence herbicidal action; conditions: 320 g/ha, rated after about 3 weeks, 100% = plants have died, 0% = like control plants
# Method: as §1
# Veronica persica = assay: Pre-emergence herbicidal action; conditions: 320 g/ha, scored after about 3 weeks, 100% = plants have died, 0% = like control plants
# From the text: as §2
SMILES,herbicidal activity on Viola tricolor (visual rating vs untreated controls) (Viola tricolor [1]) [%],herbicidal activity on Amaranthus retroflexus (visual rating vs untreated controls) (Amaranthus retroflexus [2]) [%],herbicidal activity on Stellaria media (visual rating vs untreated controls) (Stellaria media [3]) [%],herbicidal activity on Viola tricolor (visual rating vs untreated controls) (Viola tricolor [4]) [%],herbicidal activity on Matricaria inodora (visual rating vs untreated controls) (Matricaria inodora [5]) [%],herbicidal activity on Amaranthus retroflexus (visual rating vs untreated controls) (Amaranthus retroflexus [6]) [%],herbicidal activity on Ipomoea purpurea (visual rating vs untreated controls) (Ipomoea purpurea) [%],herbicidal activity on Stellaria media (visual rating vs untreated controls) (Stellaria media [7]) [%],herbicidal activity on Matricaria inodora (visual rating vs untreated controls) (Matricaria inodora [8]) [%],herbicidal activity on Veronica persica (visual rating vs untreated controls) (Veronica persica) [%]
Cc1nn(C)c(-c2ccc(F)cc2)c1C(=O)Nc1c(Cl)cccc1Cl [I-033],80,80,,,,,,,,
Cc1nn(C)c(-c2ccc(F)cc2Cl)c1C(=O)Nc1c(F)cc(F)cc1F [I-025],100,100,100,100,100,100,80,90,100,
Cc1nn(C)c(-c2ccc(F)cc2Cl)c1C(=O)Nc1cccc(F)c1 [I-027],100,100,100,,100,100,100,100,100,100
Cc1nn(C)c(-c2ccc(F)cc2Cl)c1C(=O)Nc1cc(Cl)ccc1Cl [I-017],90,100,,,80,100,,100,,
Cc1nn(C)c(-c2ccc(F)cc2Cl)c1C(=O)Nc1cc(Cl)cc(Cl)c1 [I-020],100,100,90,80,100,100,,,,
Cc1ccccc1NC(=O)c1c(C)nn(C)c1-c1ccc(F)cc1Cl [I-016],100,100,100,,100,100,100,100,100,80
Cc1nn(C)c(-c2ccc(F)cc2Cl)c1C(=O)Nc1ncccc1F [I-011],,90,80,,,80,,80,,
Cc1nn(C)c(-c2ccc(F)cc2Cl)c1C(=O)Nc1cc(Cl)ccc1F [I-021],100,100,100,100,100,100,,100,,
Cc1ccc(Cl)cc1NC(=O)c1c(C)nn(C)c1-c1ccc(F)cc1Cl [I-009],100,100,100,,100,100,100,100,100,100
CCn1nc(C)c(C(=O)Nc2c(Cl)cccc2Cl)c1-c1ccc(F)cc1Cl [I-026],80,90,,,,,,,,
Cc1nn(C)c(-c2ccc(F)cc2Cl)c1C(=O)Nc1ccccc1F [I-006],100,100,100,100,90,100,,100,,
Cc1nn(C)c(-c2ccc(F)cc2Cl)c1C(=O)Nc1ccc(F)cc1 [I-007],,100,100,,,90,,80,,
Cc1nn(C)c(-c2cc(F)ccc2Cl)c1C(=O)Nc1c(Cl)cccc1Cl [I-014],100,80,,,,,,90,,
Cc1nn(C)c(-c2ccc(F)cc2Cl)c1C(=O)NC1CCCC1 [I-003],,100,80,,90,,,,,
Cc1nn(C)c(-c2ccc(F)cc2Cl)c1C(=O)NC1CCCCC1 [I-018],,80,,,,,,,,
Cc1nn(C)c(-c2ccc(F)cc2Cl)c1C(=O)Nc1cncc(F)c1 [I-032],100,100,,,100,100,90,100,100,
Cc1nn(C)c(-c2ccc(F)cc2Cl)c1C(=O)Nc1ccc(F)nc1 [I-023],,90,100,,90,,,100,,
Cc1nn(C)c(-c2ccc(F)cc2Cl)c1C(=O)Nc1ccccc1 [I-002],100,100,100,100,100,100,80,100,100,
Cc1nn(C)c(-c2ccc(F)cc2Cl)c1C(=O)Nc1cccnc1F [I-031],100,100,90,80,100,100,,100,,
Cc1cccnc1NC(=O)c1c(C)nn(C)c1-c1ccc(F)cc1Cl [I-010],100,100,,,100,100,,100,,
Cc1nn(C)c(-c2ccc(F)cc2Cl)c1C(=O)Nc1ccc(Cl)cc1 [I-024],100,100,,,,,,100,,
